Results from patent US5104897A, “Medical uses of halogen substituted diphenylsulfides” (Burroughs Wellcome Co., priority 1989, dated 1992).

Key:
Format in all cases: biochemical
[1] = test system: Norepinephrine uptake (crude synaptosomal preparation); assay: Uptake of 3H-norepinephrine in crude synaptosomal preparations of rat hypothalamus and striatum; conditions: [3H]1-norepinephrine, rat hypothalamus/striatum synaptosomes, 5 min preincubation, 3 min incubation, 37° C. minus 0° C. uptake; read-out: IC50 (Molar) for Inhibition of Biogenic Amine Uptake, Norepinephrine
Procedure: (§1) Activity Studies Uptake of ^3 H-Biogenic Amines in Crude Synaptosomal Preparations of Rat Hypothalamus and Striatum.
(§2) A 0.5 mL aliquot of a crude synaptosomal preparation prepared according to the technique of Ferris et al., J. Pharm. Exp. Ther., 181, 407 (1972) and Patrick et al., J. Pharm. Exp. Ther., 241, 152 (1987) was incubated in a standard incubation medium containing 10 μM iproniazid, 1 μM ascorbate and […] of either [^3 H]dopamine, [^3 H]1-norepinephrine or [^3 H]serotonin. Final volumes were 3 mL.
(§3) All incubations were conducted for 3 minutes under an atmosphere of 95% O2 -5% CO2. The uptake at 0° C. and 37° C. was determined in each experiment and the difference between the two determinations represented the accumulation of [^3 H]amine by the temperature-dependent uptake process. Test compounds were dissolved in the standard incubation medium and preincubated with the crude synaptosomal preparation for 5 mintes, before the addition of the labeled substrate.
(§4) Reactions were stopped by the addition of 2 mL of ice-cold 0.32M sucrose containing 25 mM Tris buffer, pH 7.4, and rapid cooling in an ice-bath. Samples were centrifuged at 49,600×g for 10 minutes. The resulting pellet was washed with 5 mL of 0.9% saline and again centrifuged. […] A 1 mL aliquot of the supernatant was taken for determination of radioactivity.

[2] = test system: Dopamine uptake (crude synaptosomal preparation); assay: Uptake of 3H-dopamine in crude synaptosomal preparations of rat hypothalamus and striatum; conditions: at 10^-5 (Molar by title), rat synaptosomes, mean of triplicate assay with S.E.M. < ±5%
Procedure: as §1, §2, §3, §4

[3] = test system: Serotonin uptake (crude synaptosomal preparation); assay: Uptake of 3H-serotonin in crude synaptosomal preparations of rat hypothalamus and striatum; conditions: rat hypothalamus/striatum synaptosomes, 5 min preincubation, 3 min incubation, 37° C. minus 0° C. uptake, read-out: IC50 (Molar) for Inhibition of Biogenic Amine Uptake, Serotonin
Procedure: as §1, §2, §3, §4

Row | Compound | IC50 [1] [nM] | Percent inhibition of Dopamine uptake [2] [%] | IC50 [3] [nM]
1 | 5-Chloro-2-((2-((methylamino)methyl)phenyl)thio)benzyl Alcohol [Example 5] | 110 | 38 | 21
2 | CN(C)Cc1ccccc1Sc1ccc(Cl)cc1CO.Cl [Example 2, 5-chloro-2-((2-((dimethylamino)methyl)phenyl)thio)benzyl alcohol hydrochloride] | 55 | 15 | 2.1
